# Results as given in PMC11551755, “Structure-based discovery of first inhibitors targeting the helicase activity of human PIF1” (Nucleic Acids Research, 2024).
# “And” between values parts separate entries of the source, which are not always exact repeats. Identical values can stand only once. Like-named read-outs stand apart in the source and are kept apart here.
# Molecular target: T1, FLhPIF1 (full length human PIF1) (Homo sapiens, UniProt Q9H611)
# T1 construct: Full length human PIF1 (FLhPIF1) was expressed and purified as a His-SUMO fusion; His-SUMO (cleaved yes); made in house; 'following similar protocols' to hPIF1HD (ArcticExpress BL21(DE3) E. coli)
# T1 sequence (Q9H611 1-641): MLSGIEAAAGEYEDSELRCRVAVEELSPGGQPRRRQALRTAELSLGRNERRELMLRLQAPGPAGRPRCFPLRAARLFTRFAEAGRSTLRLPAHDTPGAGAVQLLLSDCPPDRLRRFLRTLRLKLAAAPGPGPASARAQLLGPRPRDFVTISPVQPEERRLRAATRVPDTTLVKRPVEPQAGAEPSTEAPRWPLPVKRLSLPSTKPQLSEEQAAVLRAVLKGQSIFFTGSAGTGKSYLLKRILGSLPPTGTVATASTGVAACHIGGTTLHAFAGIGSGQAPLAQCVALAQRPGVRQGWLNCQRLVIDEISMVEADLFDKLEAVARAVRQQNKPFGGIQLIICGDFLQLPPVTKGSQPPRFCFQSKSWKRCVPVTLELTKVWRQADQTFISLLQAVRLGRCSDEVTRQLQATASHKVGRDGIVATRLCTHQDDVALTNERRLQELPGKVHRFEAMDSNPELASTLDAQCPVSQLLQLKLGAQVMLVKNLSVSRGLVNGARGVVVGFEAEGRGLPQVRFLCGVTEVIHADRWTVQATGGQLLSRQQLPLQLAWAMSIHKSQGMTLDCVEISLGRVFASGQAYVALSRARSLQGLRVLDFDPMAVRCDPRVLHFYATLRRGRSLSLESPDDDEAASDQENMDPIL
# Test: radiometric strand displacement helicase assay, no pre-incubation
# Format: biochemical
# Details: for inhibition at 1000 µM: 1 mM single point, gel-based DNA unwinding assay, four repeats (S4 n=3); for IC50: n = 3
# Description: Helicase activity was assayed using a radiometric strand displacement assay employing a partially single- and double-stranded substrate generated by annealing two oligonucleotides: 5′-(T)55-[…] and 5′-[…], as described previously ([19],[28]). […] SMIs (100 mM stocks in DMSO) were assayed at up to 2 mM without pre-incubation with FLhPIF1, unless otherwise stated. […] Dried gels were exposed to phosphorimaging plates (Fujifilm) for imaging and quantification (Fuji FLA3000, image gauge V3.3 software). IC50 values were analysed by non-linear regression (variable slope) using GraphPad Prism.
# [1] = 0.0078–2 mM compound, 10 nM FLhPIF1, 0.1 nM DNA substrate, no pre-incubation, read-out: IC50 for inhibition of FLhPIF1 helicase activity
Compound,inhibition at 1000 µM,further results
CC(=O)Nc1ccc(-c2csc(N)n2)cc1C(C)=O [S24],10.4 ± 3.3%,–
Nc1nc(-c2ccc(-c3ccccc3)cc2)cs1 [S18],-6.7 ± 7.3%,inhibition of FLhPIF1 helicase activity in 1 mM single-point screen: incapable of inhibiting FLhPIF1 helicase activity effectively
Nc1nc(-c2ccc(S(N)(=O)=O)cc2)cs1 [S21],-17.3 ± 4.2%,–
Cc1ccc(-c2csc(N)n2)cc1 [S8],43.9 ± 5.7%,inhibition of FLhPIF1 helicase activity in 1 mM single-point screen: incapable of inhibiting FLhPIF1 helicase activity effectively
CC(=O)Nc1ccc(-c2csc(N)n2)cc1-c1cccnc1 [S55],-17.3 ± 5%,inhibition of FLhPIF1 helicase activity in 1 mM single-point screen: did not display any inhibitory activity at all
COC(=O)Cc1ccc(-c2csc(N)n2)cc1 [S20],35.9 ± 9.9%,–
CNCCNc1cc(-c2csc(N)n2)ccc1[N+](=O)[O-] [Compound 8],77.8 ± 7.9%,IC50 [1]: 176 ± 6 µM
Nc1nc(-c2ccc(Oc3ccccc3)cc2)cs1 [S17],61.7 ± 8.2%,–
CC(=O)Nc1ccc(-c2csc(N)n2)cc1 [Compound 1F],14.2 ± 7%,"IC50 [1]: ~1160 µM and 1160 µM; IC50 (no pre-incubation, value with large error, read-out: IC50 against FLhPIF1 helicase): ~1200 µM"
Nc1nc(-c2ccc([N+](=O)[O-])cc2)cs1 [Compound 3],85.6 ± 5.1%,IC50 [1]: 184 ± 13 µM
CCN(CC)C(=O)c1ccc(-c2csc(N)n2)cc1 [S14],-4.6 ± 2.8%,–
Nc1nc(-c2ccc(OC(F)(F)F)cc2)cs1 [S11],58.3 ± 9.1%,–
CCCNC(=O)c1cccc(-c2csc(N)n2)c1 [S13],0.2 ± 1.4%,–
CNc1nc(-c2ccc(NC(C)=O)cc2)cs1 [S3],-6.4 ± 2%,–
CC(=O)Nc1ccc(-c2csc(C)n2)cc1 [S2],-3 ± 2.8%,inhibition of FLhPIF1 helicase activity in 1 mM single-point screen: only minimal activity
COc1nc(-c2ccc(NC(C)=O)cc2)cs1 [S4],9.6 ± 2.8%,inhibition of FLhPIF1 helicase activity in 1 mM single-point screen: only minimal activity
N#Cc1cccc(-c2csc(N)n2)c1 [S9],-12.6 ± 4.6%,–

Compound,inhibition at 1000 µM,further results
CCN(CC)c1cc(-c2csc(N)n2)ccc1NC(C)=O [S47],24.6 ± 8.9%,–
CCOc1ccc(-c2csc(N)n2)cc1 [S16],25.9 ± 3.2%,–
CC(=O)Nc1ccc(-c2csc(N)n2)cc1N1CCNCC1 [Compound 9],69.1 ± 5.5%,IC50 [1]: 307 ± 16 µM
CC(=O)Nc1ccc(-c2csc(N)n2)cc1-c1cnn(C)c1 [S56],-16.9 ± 4.5%,inhibition of FLhPIF1 helicase activity in 1 mM single-point screen: did not display any inhibitory activity at all
CC(=O)Nc1ccc(-c2csc(N)n2)cc1 [Compound 1E],–,"helicase inhibitory activity compared to commercial batches 1A–1C (0.0078-2 mM, no pre-incubation): significantly lower inhibitory activities"
CC(=O)Nc1ccc(-c2csc(N)n2)cc1N1CCN(C)CC1 [S49],24.3 ± 5.9%,–
CC(=O)Nc1ccc(-c2csc(N)n2)cc1OC1CCCC1 [S51],50 ± 4.2%,–
CC(=O)Nc1ccc(-c2csc(NC(C)=O)n2)cc1 [Compound 7],57 ± 14.7%,fold increase in inhibition at 1 mM relative to compound 1 (1 mM single point helicase screen): 4 fold; IC50 [1]: 569 ± 139 µM
Nc1nc(-c2cccc(OC(F)(F)F)c2)cs1 [S10],59.5 ± 1.7%,–
COC(=O)c1cccc(-c2csc(N)n2)c1 [S12],-11 ± 1%,–
CNC(=O)c1ccc(-c2csc(N)n2)cc1 [S15],37.9 ± 4.3%,–
CC(=O)Nc1ccc(-c2csc(N)n2)cc1N1CCOCC1 [S48],11.5 ± 3.7%,–
Cc1cccc(-c2csc(N)n2)c1 [S7],-8.1 ± 1.9%,–
COc1cc(-c2csc(N)n2)ccc1NC(C)=O [S50],22.1 ± 5%,–
CC(=O)Nc1ccc(-c2csc(N)n2)cc1C(C)O (stereo not shown) [S25],42.5 ± 13.5%,–
CS(=O)(=O)c1ccc(-c2csc(N)n2)cc1 [S19],46.6 ± 15.5%,–
